Assay results published in patent KR20230047805A, “알기나제 유래 펩타이드를 포함하는 심혈관 질환 예방 또는 치료용 조성물” (강원대학교산학협력단, priority 2021, dated 2023).

What was measured:
알기나제와 p32 단백질의 결합 = biological target: T1, 알기나제와 p32 단백질의 결합 (Homo sapiens, UniProt Q07021); assay: Co-immunoprecipitation: binding of arginase and p32 in HUVECs; type: cell-based; conditions: peptide 10 μM, 12 h, co-IP with p32 antibody
T1 construct: YDIQY 펩타이드를 처리한 HUVECs을 RIPA buffer를 이용하여 lysis하고; endogenous in cells; host or cells: HUVECs
T1 sequence (Q07021 74-282): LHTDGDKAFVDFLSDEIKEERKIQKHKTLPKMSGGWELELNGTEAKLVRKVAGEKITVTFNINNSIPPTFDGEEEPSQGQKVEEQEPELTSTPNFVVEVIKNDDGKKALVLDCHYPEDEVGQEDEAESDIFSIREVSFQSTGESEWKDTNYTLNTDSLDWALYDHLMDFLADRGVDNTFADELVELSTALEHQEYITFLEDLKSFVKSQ

[1] = Tail-cuff blood pressure measurement (CODA) in wild-type mice after i.v. peptide; type: in vivo, mouse; conditions: WT mice, 0.25 mM/kg i.v. once daily, 4day
p32 단백질 [2] = biological target: T2, p32 단백질 (Homo sapiens, UniProt Q07021); assay: Co-immunoprecipitation: ubiquitination of p32 in HUVECs; type: cell-based; conditions: peptide 10 μM, 12 h, co-IP with p32 antibody
T2 construct: 펩타이드를 처리한 HUVECs을 1X SDS sample buffer로 lysis한 뒤; endogenous in cells; host or cells: HUVECs
T2 sequence (Q07021 74-282): T1 sequence (Q07021 74-282)

ApoE-/-+HCD 생쥐 대동맥 [3] = assay: ROS measurement (DHE fluorescence) in aorta of atherosclerosis model mice after i.v. peptide; type: in vivo, mouse; conditions: 0.25 mM/kg i.v. every second day, 5 injections in 10 days
ApoE-/-+HCD 생쥐 대동맥 [4] = assay: NO measurement (DAF-FM fluorescence) in aorta of atherosclerosis model mice after i.v. peptide; type: in vivo, mouse; conditions: 0.25 mM/kg i.v. every second day, 5 injections in 10 days
CaMKII = assay: Western blot of CaMKII phosphorylation in peptide-treated HUVECs; type: cell-based, human; conditions: peptide 10 μM, 12 h
p32 단백질 [5] = biological target: T2, p32 단백질; assay: Western blot of p32 protein level in peptide-treated HUVECs; type: cell-based; conditions: 12 h
ApoE-/-+HCD 생쥐 대동맥 절편 = assay: Vascular tension measurement of aortic segments of atherosclerosis model mice after i.v. peptide; type: in vivo, mouse
p32 단백질 [6] = biological target: T2, p32 단백질; assay: Mitochondrial fractionation and immunoblotting of p32 in HUVECs; type: cell-based; conditions: peptide 10 μM, 12 h, mitochondrial fraction
p32 단백질 [7] = biological target: T2, p32 단백질; assay: p32 protein level under proteasome inhibition (MG132) in HUVECs, Western blot; type: cell-based; conditions: peptide 10 μM, 12 h
eNOS = assay: Western blot of eNOS phosphorylation (Ser1177, Thr495) in peptide-treated HUVECs; type: cell-based, human; conditions: peptide 10 μM, 12 h

binding of p32 with arginase vs control (알기나제와 p32 단백질의 결합): 감소되어있는
p32 ubiquitination vs control (p32 단백질 [2]): 증가되어
p32 protein level (p32 단백질 [5]; peptide 10 μM, Western blot): 감소되었고
cytoplasmic p32 protein level (p32 단백질 [5]; peptide 0.01, 0.1, 1, 10 μM): 농도 의존적으로 감소
mitochondrial p32 protein level (p32 단백질 [6]): 유의하게 감소
p32 protein level (p32 단백질 [7]; with proteasome inhibitor MG132 10 μM, 24 h): 감소되지 않는
p32 protein level (p32 단백질 [7]; without MG132): 감소하였지만
Substance: YDIQY: penta-peptide of SEQ ID NO: 1 designed from the arginase/p32 binding site; p32 inhibiting activity (printed: Tyr Asp Ile Gln Tyr)
수축기 (systolic pressure) [1]: 유의하게 감소
이완기 (diastolic pressure) [1]: 유의하게 감소
평균 대동맥압 (mean aortic pressure) [1]: 유의하게 감소
ROS production in aorta (ApoE-/-+HCD 생쥐 대동맥 [3]): 정상 생쥐 수준만큼 회복
NO production in aorta (ApoE-/-+HCD 생쥐 대동맥 [4]): 정상 생쥐 수준만큼 회복
CaMKII phosphorylation (activity) (CaMKII): 증가하였고
Ach-dependent relaxation of aortic segments (ApoE-/-+HCD 생쥐 대동맥 절편; ApoE-/-+HCD mice, 0.25 mM/kg i.v. x5, Ach 10-9~10^-5 M): 정상 생쥐 수준만큼 회복되는
PE-dependent contraction of aortic segments (ApoE-/-+HCD 생쥐 대동맥 절편; ApoE-/-+HCD mice, 0.25 mM/kg i.v. x5, PE 10-9~10^-5 M): 정상 생쥐 수준만큼 회복하는
KCl contraction of aortic segments (ApoE-/-+HCD 생쥐 대동맥 절편; four groups compared, KCl 60 mM, 20 min): 차이가 없음
SNP-dependent (endothelium-independent) relaxation of aortic segments (ApoE-/-+HCD 생쥐 대동맥 절편; four groups compared, SNP 10-10~10^-6 M): 차이가 없음
eNOS Ser1177 (activating site) phosphorylation (eNOS): 증가되었으며
eNOS Thr495 (inactivating site) phosphorylation (eNOS): 감소되는
